# Legend:
# Experiment in all cases: cells
# TE-6 = format: functional, cell-based, Homo sapiens; details: Homo sapiens, TE-6;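 note: growth inhibition of TE-6 cells, read out with a cell viability assay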
# Description: SANGER: Inhibition of human TE-6 cell growth in a cell viability assay.
# HuCCT-1 = format: functional, cell-based, Homo sapiens, HuCCT1; details: Homo sapiens, HuCCT-1;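 note: growth inhibition of HuCCT-1 cells, read out by a cell viability assay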
# Description: SANGER: Inhibition of human HuCCT1 cell growth in a cell viability assay.
# PFSK-1 = format: functional, cell-based, Homo sapiens; details: Homo sapiens, PFSK-1;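 note: cell viability assay measuring how strongly compounds suppress growth of human PFSK-1 cells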
# Description: SANGER: Inhibition of human PFSK-1 cell growth in a cell viability assay.
# COLO-680N = format: functional, cell-based, Homo sapiens; details: Homo sapiens, COLO-680N;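 note: cell viability assay used to measure inhibition of COLO-680N cell growth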
# Description: SANGER: Inhibition of human COLO-680N cell growth in a cell viability assay.
# GT3TKB = format: functional, cell-based, Homo sapiens; details: Homo sapiens, GT3TKB;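 note: growth inhibition of the cell line, read out with a cell viability assay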
# Description: SANGER: Inhibition of human GT3TKB cell growth in a cell viability assay.
# A2058 = format: functional, cell-based; details: Homo sapiens;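 note: reduction of A2058 cell growth, read out with a viability assay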
# Description: SANGER: Inhibition of human A2058 cell growth in a cell viability assay.
# RS4-11 = format: functional, cell-based; details: Homo sapiens;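 note: growth inhibition of RS4-11 cells, read out by a cell viability assay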
# Description: SANGER: Inhibition of human RS4-11 cell growth in a cell viability assay.
# NCI-H2452 = format: functional, cell-based, Homo sapiens; details: Homo sapiens, NCI-H2452;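 note: growth inhibition of NCI-H2452 cells, read out with a cell viability assay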
# Description: SANGER: Inhibition of human NCI-H2452 cell growth in a cell viability assay.
# U-266 = format: functional, cell-based; details: Homo sapiens
# Description: SANGER: Inhibition of human U-266 cell growth in a cell viability assay.
# GCIY = format: functional, cell-based, Homo sapiens; details: Homo sapiens, GCIY;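 note: growth inhibition of the human GCIY cell line, read out by a cell viability assay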
# Description: SANGER: Inhibition of human GCIY cell growth in a cell viability assay.
# MKN-1 = format: functional, cell-based, Homo sapiens; details: Homo sapiens, MKN-1;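 note: growth inhibition of human MKN1 cells, read out by a cell viability measurement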
# Description: SANGER: Inhibition of human MKN1 cell growth in a cell viability assay.
# 769-P = format: functional, cell-based, Homo sapiens; details: Homo sapiens, 769-P
# Description: SANGER: Inhibition of human 769-P cell growth in a cell viability assay.
# NCI-N87 = format: functional, cell-based, Homo sapiens; details: Homo sapiens, NCI-N87;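 note: growth inhibition of human NCI-N87 cells, read out with a cell viability assay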
# Description: SANGER: Inhibition of human NCI-N87 cell growth in a cell viability assay.
# SBC-5 = format: functional, cell-based, Homo sapiens; details: Homo sapiens, SBC-5;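 note: cell viability assay read-out, IC50 is the concentration that inhibits growth of the cells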
# Description: SANGER: Inhibition of human SBC-5 cell growth in a cell viability assay.
# CAL-120 = format: functional, cell-based, Homo sapiens; details: Homo sapiens, CAL-120;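 note: cell growth inhibition, read out as cell viability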
# Description: SANGER: Inhibition of human CAL-120 cell growth in a cell viability assay.
# KYSE-270 = format: functional, cell-based, Homo sapiens; details: Homo sapiens, KYSE-270;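 note: cell growth inhibition measured with a viability assay in the human KYSE-270 line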
# Description: SANGER: Inhibition of human KYSE-270 cell growth in a cell viability assay.
# 697 = format: functional, cell-based; details: Homo sapiens
# Description: SANGER: Inhibition of human 697 cell growth in a cell viability assay.
# KYSE-140 = format: functional, cell-based, Homo sapiens; details: Homo sapiens, KYSE-140;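 note: cell viability assay measuring growth inhibition in human KYSE-140 cells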
# Description: SANGER: Inhibition of human KYSE-140 cell growth in a cell viability assay.
# GB-1 = format: functional, cell-based, Homo sapiens; details: Homo sapiens, GB-1;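 note: growth of GB-1 cells judged by a viability assay, IC50 marks the concentration inhibiting growth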
# Description: SANGER: Inhibition of human GB-1 cell growth in a cell viability assay.
# ES3 = format: functional, cell-based, Homo sapiens; details: Homo sapiens, ES3;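 note: growth inhibition of ES3 cells, read out with a cell viability assay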
# Description: SANGER: Inhibition of human ES3 cell growth in a cell viability assay.
# CAL-39 = format: functional, cell-based, Homo sapiens; details: Homo sapiens, CAL-39;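 note: cell viability assay measuring growth inhibition of CAL-39 cells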
# Description: SANGER: Inhibition of human CAL-39 cell growth in a cell viability assay.
# KP-N-YS = format: functional, cell-based; details: Homo sapiens;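 note: cell viability assay measuring inhibition of cell line growth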
# Description: SANGER: Inhibition of human KP-N-YS cell growth in a cell viability assay.
# NCI-H1299 = format: functional, cell-based, Homo sapiens; details: Homo sapiens, NCI-H1299;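 note: growth inhibition of human NCI-H1299 cells, read out by a cell viability assay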
# Description: SANGER: Inhibition of human NCI-H1299 cell growth in a cell viability assay.
# HCC1419 = format: functional, cell-based, Homo sapiens; details: Homo sapiens, HCC1419;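 note: growth inhibition of human HCC1419 cells, read out as cell viability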
# Description: SANGER: Inhibition of human HCC1419 cell growth in a cell viability assay.
# MDA-MB-231 = format: functional, cell-based, Homo sapiens; details: Homo sapiens, MDA-MB-231
# Description: SANGER: Inhibition of human MDA-MB-231 cell growth in a cell viability assay.
# CHL-1 = format: functional, cell-based, Homo sapiens; details: Homo sapiens, CHL-1;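 note: cell growth inhibition, read out with a cell viability assay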
# Description: SANGER: Inhibition of human CHL-1 cell growth in a cell viability assay.
# HPAF-II = format: functional, cell-based, Homo sapiens; details: Homo sapiens, HPAF-II;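 note: growth inhibition of HPAF-II cells, read out with a cell viability assay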
# Description: SANGER: Inhibition of human HPAF-II cell growth in a cell viability assay.
# OAW-28 = format: functional, cell-based, Homo sapiens; details: Homo sapiens, OAW-28;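 note: growth inhibition of OAW-28 cells, read out with a cell viability assay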
# Description: SANGER: Inhibition of human OAW-28 cell growth in a cell viability assay.
# CAS-1 = format: functional, cell-based, Homo sapiens; details: Homo sapiens, CAS-1;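 note: growth inhibition of CAS-1 cells, measured with a cell viability assay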
# Description: SANGER: Inhibition of human CAS-1 cell growth in a cell viability assay.
# HCC1937 = format: functional, cell-based, Homo sapiens; details: Homo sapiens, HCC1937;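 note: growth inhibition measured with a cell viability read-out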
# Description: SANGER: Inhibition of human HCC1937 cell growth in a cell viability assay.
# SCC-15 = format: functional, cell-based, Homo sapiens; details: Homo sapiens, SCC-15;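 note: growth inhibition of SCC-15 cells, read out with a cell viability assay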
# Description: SANGER: Inhibition of human SCC-15 cell growth in a cell viability assay.
# P12-Ichikawa = format: functional, cell-based; details: Homo sapiens
# HuP-T4 = format: functional, cell-based, Homo sapiens; details: Homo sapiens, HuP-T4;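 note: cell viability assay measuring how much HuP-T4 cell growth is inhibited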
# Description: SANGER: Inhibition of human HuP-T4 cell growth in a cell viability assay.
# MHH-NB-11 = format: functional, cell-based, Homo sapiens; details: Homo sapiens, MHH-NB-11;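 note: growth inhibition of human MHH-NB-11 cells, read out by a cell viability assay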
# Description: SANGER: Inhibition of human MHH-NB-11 cell growth in a cell viability assay.
# GR-ST = format: functional, cell-based; details: Homo sapiens
# Description: SANGER: Inhibition of human GR-ST cell growth in a cell viability assay.
# TE-8 = format: functional, cell-based, Homo sapiens; details: Homo sapiens, TE-8;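 note: growth inhibition of TE-8 cells, measured with a cell viability readout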
# Description: SANGER: Inhibition of human TE-8 cell growth in a cell viability assay.
# RO82-W-1 = format: functional, cell-based, Homo sapiens; details: Homo sapiens, RO82-W-1;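 note: growth inhibition of human RO82-W-1 cells, measured with a cell viability assay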
# Description: SANGER: Inhibition of human RO82-W-1 cell growth in a cell viability assay.
# HCC1395 = format: functional, cell-based, Homo sapiens; details: Homo sapiens, HCC1395;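 note: growth inhibition of HCC1395 cells, read out by a cell viability assay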
# Description: SANGER: Inhibition of human HCC1395 cell growth in a cell viability assay.
# SKG-IIIa = format: functional, cell-based, Homo sapiens; details: Homo sapiens, SKG-IIIa;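 note: cell growth inhibition, read out with a cell viability assay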
# Description: SANGER: Inhibition of human SKG-IIIa cell growth in a cell viability assay.
# EW-13 = format: functional, cell-based; details: Homo sapiens;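 note: growth inhibition of EW-13 cells, read out with a cell viability assay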
# Description: SANGER: Inhibition of human EW-13 cell growth in a cell viability assay.
# OVCAR-5 = format: functional, cell-based, Homo sapiens; details: Homo sapiens, OVCAR-5;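 note: growth inhibition of human OVCAR-5 cells, read out with a cell viability assay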
# Description: SANGER: Inhibition of human OVCAR-5 cell growth in a cell viability assay.
# MMAC-SF = format: functional, cell-based, Homo sapiens; details: Homo sapiens, MMAC-SF;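 note: growth inhibition of human MMAC-SF cells, read out with a cell viability assay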
# Description: SANGER: Inhibition of human MMAC-SF cell growth in a cell viability assay.
# NCI-H1092 = format: functional, cell-based; details: Homo sapiens;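 note: cell growth inhibition measured with a cell viability assay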
# Description: SANGER: Inhibition of human NCI-H1092 cell growth in a cell viability assay.
# SK-N-DZ = format: functional, cell-based, Homo sapiens; details: Homo sapiens, SK-N-DZ;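 note: growth inhibition of the cancer cell line, read out through a viability assay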
# Description: SANGER: Inhibition of human SK-N-DZ cell growth in a cell viability assay.
# MS-1 = format: functional, cell-based; details: Homo sapiens;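 note: growth inhibition of MS-1 cells, read out by cell viability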
# Description: SANGER: Inhibition of human MS-1 cell growth in a cell viability assay.
# SBC-1 = format: functional, cell-based; details: Homo sapiens;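 note: cell viability assay measuring growth inhibition of the SBC-1 cell line, IC50 being the concentration that halves growth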
# Description: SANGER: Inhibition of human SBC-1 cell growth in a cell viability assay.
# HC-1 = format: functional, cell-based; details: Homo sapiens;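 note: growth inhibition of HC-1 cells measured by a cell viability assay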
# Description: SANGER: Inhibition of human HC-1 cell growth in a cell viability assay.
# SCC-4 = format: functional, cell-based, Homo sapiens; details: Homo sapiens, SCC-4;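 note: growth inhibition of human SCC-4 cells, read out as cell viability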
# Description: SANGER: Inhibition of human SCC-4 cell growth in a cell viability assay.
# T84 = format: functional, cell-based, Homo sapiens; details: Homo sapiens, T84;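 note: growth inhibition measured with a cell viability readout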
# Description: SANGER: Inhibition of human T84 cell growth in a cell viability assay.
# SW982 = format: functional, cell-based; details: Homo sapiens;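 note: growth inhibition of SW982 cells, read out with a cell viability assay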
# Description: SANGER: Inhibition of human SW982 cell growth in a cell viability assay.
# NCI-H661 = format: functional, cell-based, Homo sapiens; details: Homo sapiens, NCI-H661;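 note: cell viability assay read-out, IC50 being the concentration that inhibits growth of the cells by half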
# Description: SANGER: Inhibition of human NCI-H661 cell growth in a cell viability assay.
# GOTO = format: functional, cell-based, Homo sapiens; details: Homo sapiens, GOTO;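 note: growth inhibition of GOTO cells, read out by a cell viability assay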
# Description: SANGER: Inhibition of human GOTO cell growth in a cell viability assay.
smiles,measurement,setting,value
O=C(NOCC1CC1)c1ccc(F)c(F)c1Nc1ccc(I)cc1Cl [CI-1040],IC50,TE-6,> 10000 nM
same,IC50,HuCCT-1,7010 nM
same,IC50,PFSK-1,> 10000 nM
same,IC50,COLO-680N,> 10000 nM
same,IC50,GT3TKB,5470 nM
same,IC50,A2058,2190 nM
same,IC50,RS4-11,5670 nM
same,IC50,NCI-H2452,> 10000 nM
same,IC50,U-266,7560 nM
same,IC50,GCIY,> 10000 nM
same,IC50,MKN-1,> 10000 nM
same,IC50,769-P,> 10000 nM
same,IC50,NCI-N87,> 10000 nM
same,IC50,SBC-5,> 10000 nM
same,IC50,CAL-120,> 10000 nM
same,IC50,KYSE-270,> 10000 nM
same,IC50,697,3700 nM
same,IC50,KYSE-140,6020 nM
same,IC50,GB-1,> 10000 nM
same,IC50,ES3,> 10000 nM
same,IC50,CAL-39,2900 nM
same,IC50,KP-N-YS,> 10000 nM
same,IC50,NCI-H1299,> 10000 nM
same,IC50,HCC1419,> 10000 nM
same,IC50,MDA-MB-231,4290 nM
same,IC50,CHL-1,2810 nM
same,IC50,HPAF-II,3750 nM
same,IC50,OAW-28,> 10000 nM
same,IC50,CAS-1,> 10000 nM
same,IC50,HCC1937,9290 nM
same,IC50,SCC-15,> 10000 nM
same,IC50,P12-Ichikawa,612 nM
same,IC50,HuP-T4,1180 nM
same,IC50,MHH-NB-11,6850 nM
same,IC50,GR-ST,7400 nM
same,IC50,TE-8,5690 nM
same,IC50,RO82-W-1,> 10000 nM
same,IC50,HCC1395,> 10000 nM
same,IC50,SKG-IIIa,> 10000 nM
same,IC50,EW-13,2560 nM
same,IC50,OVCAR-5,1780 nM
same,IC50,MMAC-SF,110 nM
same,IC50,NCI-H1092,> 10000 nM
same,IC50,SK-N-DZ,> 10000 nM
same,IC50,MS-1,8880 nM
same,IC50,SBC-1,8870 nM
same,IC50,HC-1,> 10000 nM
same,IC50,SCC-4,> 10000 nM
same,IC50,T84,> 10000 nM
same,IC50,SW982,> 10000 nM
same,IC50,NCI-H661,> 10000 nM
same,IC50,GOTO,> 10000 nM
Nc1ccn([C@@H]2O[C@H](CO)[C@@H](O)[C@@H]2O)c(=O)n1 [CYTARABINE],IC50,TE-6,> 2000 nM
same,IC50,HuCCT-1,> 2000 nM
same,IC50,PFSK-1,> 2000 nM
same,IC50,COLO-680N,> 2000 nM
same,IC50,GT3TKB,341 nM
same,IC50,A2058,687 nM
same,IC50,RS4-11,381 nM
same,IC50,NCI-H2452,> 2000 nM
same,IC50,U-266,> 2000 nM
same,IC50,GCIY,> 2000 nM
same,IC50,MKN-1,1740 nM
same,IC50,769-P,228 nM
same,IC50,NCI-N87,> 2000 nM
same,IC50,SBC-5,> 2000 nM
same,IC50,CAL-120,> 2000 nM
same,IC50,KYSE-270,849 nM
same,IC50,697,10.6 nM
same,IC50,KYSE-140,> 2000 nM
same,IC50,GB-1,> 2000 nM
same,IC50,ES3,199 nM
same,IC50,CAL-39,998 nM
same,IC50,KP-N-YS,> 2000 nM
same,IC50,NCI-H1299,672 nM
same,IC50,HCC1419,> 2000 nM
same,IC50,MDA-MB-231,> 2000 nM
same,IC50,CHL-1,1040 nM
same,IC50,HPAF-II,> 2000 nM
same,IC50,OAW-28,> 2000 nM
same,IC50,CAS-1,> 2000 nM
same,IC50,HCC1937,> 2000 nM
same,IC50,SCC-15,1080 nM
same,IC50,P12-Ichikawa,5.54 nM
same,IC50,HuP-T4,237 nM
same,IC50,MHH-NB-11,728 nM
same,IC50,GR-ST,385 nM
same,IC50,TE-8,219 nM
same,IC50,RO82-W-1,> 2000 nM
same,IC50,HCC1395,> 2000 nM
same,IC50,SKG-IIIa,915 nM
same,IC50,EW-13,1980 nM
same,IC50,OVCAR-5,220 nM
same,IC50,MMAC-SF,> 2000 nM
same,IC50,NCI-H1092,> 2000 nM
same,IC50,SK-N-DZ,1070 nM
same,IC50,MS-1,> 2000 nM
same,IC50,SBC-1,> 2000 nM
same,IC50,HC-1,1080 nM
same,IC50,SCC-4,965 nM
same,IC50,T84,> 2000 nM
same,IC50,SW982,91.2 nM
same,IC50,NCI-H661,1730 nM
same,IC50,GOTO,424 nM
CC(=O)O[C@@]12CO[C@@H]1C[C@H](O)[C@@]1(C)C(=O)[C@H](O)C3=C(C)[C@@H](OC(=O)[C@H](O)[C@@H](NC(=O)OC(C)(C)C)c4ccccc4)C[C@@](O)([C@@H](OC(=O)c4ccccc4)[C@H]21)C3(C)C [DOCETAXEL],IC50,TE-6,> 10 nM
same,IC50,HuCCT-1,5.68 nM
same,IC50,PFSK-1,0.657 nM
same,IC50,COLO-680N,5.08 nM
same,IC50,GT3TKB,0.232 nM
same,IC50,A2058,0.544 nM
same,IC50,RS4-11,> 10 nM
same,IC50,NCI-H2452,2.16 nM
same,IC50,U-266,3.48 nM
same,IC50,GCIY,> 10 nM
same,IC50,MKN-1,> 10 nM
same,IC50,769-P,> 10 nM
same,IC50,NCI-N87,> 10 nM
same,IC50,SBC-5,1.87 nM
same,IC50,CAL-120,4.35 nM
same,IC50,KYSE-270,2.78 nM
same,IC50,697,1.72 nM
same,IC50,KYSE-140,0.933 nM
same,IC50,GB-1,5.11 nM
same,IC50,ES3,2.77 nM
same,IC50,CAL-39,1.63 nM
same,IC50,KP-N-YS,> 10 nM
same,IC50,NCI-H1299,8.57 nM
same,IC50,HCC1419,> 10 nM
same,IC50,MDA-MB-231,7.3 nM
same,IC50,CHL-1,0.958 nM
same,IC50,HPAF-II,9.26 nM
same,IC50,OAW-28,> 10 nM
same,IC50,CAS-1,> 10 nM
same,IC50,HCC1937,> 10 nM
same,IC50,SCC-15,6.89 nM
same,IC50,P12-Ichikawa,0.745 nM
same,IC50,HuP-T4,6.79 nM
same,IC50,MHH-NB-11,> 10 nM
same,IC50,GR-ST,> 10 nM
same,IC50,TE-8,0.366 nM
same,IC50,RO82-W-1,5.31 nM
same,IC50,HCC1395,> 10 nM
same,IC50,SKG-IIIa,2.86 nM
same,IC50,EW-13,> 10 nM
same,IC50,OVCAR-5,1.99 nM
same,IC50,MMAC-SF,5.86 nM
same,IC50,NCI-H1092,> 10 nM
same,IC50,SK-N-DZ,9.83 nM
same,IC50,MS-1,> 10 nM
same,IC50,SBC-1,0.43 nM
same,IC50,HC-1,6.56 nM
same,IC50,SCC-4,0.739 nM
same,IC50,T84,> 10 nM
same,IC50,SW982,1.27 nM
same,IC50,NCI-H661,> 10 nM
same,IC50,GOTO,2.27 nM

# From ChEMBL document CHEMBL1201861, “Genomics of Drug Sensitity in Cancer screening data, Wellcome Trust Sanger Institute”
